Experimental data reported in publication PMC11643450, “Pimozide and Adipic Acid: A New Multicomponent Crystalline Entity for Improved Pharmaceutical Behavior” (Molecules, 2024).
Values after ≈ are worked out from the molar mass of the structure shown.

What was measured:
[1] = Contact angle (wettability) of powder samples with drops of the different fluids; type: physicochemical
Method: In total, 120 mg of each sample was placed in a cylindrical ring, and the surface was smoothed with a scraper. The Contact Angle Meter DMe-211Plus (NTG Nuova Tecnogalenica, Cernusco, Italy) was used to record the images of a drop (9 μL) of the different fluids once placed in contact with the surface of the samples at progressive times. The contact angles were measured using the software supplied with the apparatus (three replicates).

[2] = Solubility at equilibrium, shake flask method with spectrophotometric determination; type: physicochemical; conditions: thermodynamic from solid, 21 °C
Method: The samples were sieved through a 230-mesh grid, 63 μm (Endecotts, London, UK).
An excess sample is placed in the flasks containing the three different fluids and left under stirring. At time intervals, a portion of the solution was taken and filtered on a 0.22 μm filter (Millipore Merck, Darmstadt, Germany). The drug concentration was determined using UV detection (Lambda 25, Perkin-Elmer, Monza, Italy). The test was repeated until equilibrium was reached.

[3] = In vitro dissolution test, USP apparatus 2 (paddle); type: physicochemical
Method: For the dissolution tests, the USP apparatus 2, paddle (Erweka DT-D6, Erweka GmbH, Dusseldorf, Germany) was used at 37.0 ± 0.5 °C and 50 rpm (three replicates). In 900 mL of 0.01 N hydrochloric acid pH = 2, which is the medium requested by the USP monograph (Pimozide Tablets, Official Monograph. In The United States Pharmacopeia (USP43-NF38); United States Pharmacopeia Convention, Inc.: Rockville, MD, USA, 2023; p. 3548), it can simulate a fasted stomach environment and, in other two fluids, simulates the following: pH 4.5 phosphate buffer (a condition that simulates the gastric environment in fed conditions) and deionized water (neutral conditions). The dissolution media were prepared according to the reagent and buffer solutions section of the USP [33]. […] The drug concentration was determined using UV detection (Lambda 25, Perkin-Elmer, Monza, Italy), and the data were analyzed using the software provided (Winlab V6 software, Perkin-Elmer, Monza, Italy).

[4] = set-up: method as in doi:10.1016/j.molliq.2015.12.054; conditions: cited from earlier work

Compound	Wettability ([1]; pH 2)	solubility ([2]; aqueous buffer, pH 4.5 (phosphate buffer))	solubility ([2]; simulated gastric fluid, pH 2.0 (0.01N hydrochloric acid))	solubility ([2]; H2O (deionized water))	Contact angle ([1]; deionized water)	Contact angle ([1]; pH 2, after about 3 min)	Contact angle ([1]; pH 2, initial)	Contact angle ([1]; pH 4.5)	Passage into solution ([3]; deionized water (neutral conditions), compared with pH 4.5, 4 mg PMZ)	Fraction of the dose passed into solution in the first hour ([3]; pH 4.5 phosphate buffer (fed stomach), 4 mg PMZ)	BCS class [4]
O=C(O)CCCCC(=O)O [AAD, adipic acid]	poorly wettable										
O=c1[nH]c2ccccc2n1C1CCN(CCCC(c2ccc(F)cc2)c2ccc(F)cc2)CC1 [PMZ, 1-(1-(4,4-bis(p-fluorophenyl)butyl)-4-piperidyl)-2-benzimidazoline]		6.4 ± 0.2 µg/mL (≈ 13.9 µM)	175 ± 1.8 µg/mL (≈ 380 µM)	1.4 ± 0.3 µg/mL (≈ 3.03 µM)	~120 θ	4 θ	120 θ	about 130 θ	further depressed	just a very tiny fraction of the dose	class II
[PMZH]2[adipate] [PMZ:AAD 0.66:0.33ev]					less than 100 θ			less than 90 θ			
